The record followed here is patent US10273221B2, “Microbiocidal heterobicyclic derivatives” (Syngenta Participations AG, priority 2015, dated 2019).

Data set [1] relates to Monographella nivalis (Microdochium nivale). Description: Monographella nivalis (Microdochium nivale) / liquid culture (foot rot cereals). It is filed as cell-based. The conditions noted are these: 96 h, growth inhibition determined photometrically 4-5 days after application, vs untreated control, read-out: disease control.
The subject of data set [2] is Botryotinia fuckeliana (Botrytis cinerea). Description: Botryotinia fuckeliana (Botrytis cinerea) / liquid culture (gray mould). The conditions noted are these: growth inhibition determined photometrically 3-4 days after application, vs untreated control, read-out: disease control. The class given is cell-based.
Data set [3] relates to Magnaporthe grisea (Pyricularia oryzae). Kind of data set: microbe, parasite or virus in culture. The conditions noted are these: 72 h, read-out: control of Magnaporthe grisea. It is filed as cell-based.
The test system of the next data set is Sclerotinia sclerotiorum. Kind of data set: Sclerotinia sclerotiorum / liquid culture (cottony rot). The conditions noted are these: 72 h, read-out: control of Sclerotinia sclerotiorum.
For the next data set, the system named is Fusarium culmorum. Kind of data set: microbe, parasite or virus in culture. It is filed as cell-based. The conditions noted are these: 72 h, read-out: disease control.
The test system of data set [4] is Mycosphaerella graminicola (Septoria tritici). Description: Mycosphaerella graminicola (Septoria tritici) / liquid culture (Septoria blotch). It is filed as cell-based. The conditions noted are these: Zymoseptoria tritici, 96 h, growth inhibition determined photometrically 4-5 days after application, vs untreated control, read-out: disease control.
The subject of data set [5] is Glomerella lagenarium (Colletotrichum lagenarium). Description: Glomerella lagenarium (Colletotrichum lagenarium) / liquid culture (anthracnose). It is filed as cell-based. The conditions noted are these: Colletotrichum orbiculare, growth inhibition measured photometrically 3-4 days after application, vs untreated control, read-out: disease control.
Data set [6] relates to Pyrenophora teres. Kind of data set: Pyrenophora teres / liquid culture (net blotch). The class given is cell-based. The conditions noted are these: growth inhibition determined photometrically 3-4 days after application, vs untreated control.
For the next data set, the system named is Gaeumannomyces graminis. Description: Gaeumannomyces graminis / liquid culture (take-all of cereals). The class given is cell-based. The conditions noted are these: growth inhibition determined photometrically 4-5 days after application, vs untreated control, read-out: disease control.
For data set [7], the system named is Pyrenophora teres. Description: Pyrenophora teres / barley / leaf disc preventative (net blotch). It is filed as in vivo. The conditions noted are these: 200 ppm, barley leaf segments cv. Hasso, inoculated 2 days after application, assessed 5-7 days after application. The protocol:
Pyrenophora teres/Barley/Leaf Disc Preventative (Net Blotch)
Barley leaf segments cv. Hasso are placed on agar in a multiwell plate (24-well format) and sprayed with the formulated test compound diluted in water. The leaf segmens are inoculated with a spore suspension of the fungus 2 days after application. The inoculated leaf segments are incubated at 20° C. and 65% rh under a light regime of 12 h light/12 h darkness in a climate cabinet and the activity of a compound is assessed as disease control compared to untreated when an appropriate level of disease damage appears in untreated check leaf segments (5-7 days after application).

Experimental for Sclerotinia sclerotiorum: Sclerotinia sclerotiorum/Liquid Culture (Cottony Rot)
Mycelia fragments of a newly grown liquid culture of the fungus are directly mixed into nutrient broth (Vogels broth). After placing a (DMSO) solution of test compound into a microtiter plate (96-well format) the nutrient broth containing the fungal material is added. The test plates are incubated at 24° C. and the inhibition of growth is determined photometrically 3-4 days after application.

For `Cc1ccc2c(ncn2C2=NC(C)(C)C(C)(C)c3c(F)cccc32)c1C` [E-18], the inhibition of growth at 200 ppm (in data set [1]; in data set [2]; in the data set on Fusarium culmorum; in [4]; in data set [5]; in the data set on Gaeumannomyces graminis) was not below 80% in each case. Also, the inhibition of growth at 20 ppm (in [3]; with Sclerotinia sclerotiorum; with Pyrenophora teres [6]) was not below 80% in each case.
On to `Cc1cc2ncn(C3=NC(C)(C)C(C)(C)c4c(F)cccc43)c2cc1C` [E-30], for which the inhibition of growth at 200 ppm (in [1]; in data set [2]; with Fusarium culmorum; in data set [4]; in data set [5]; in the data set with Gaeumannomyces graminis) was not below 80% throughout. Besides, the inhibition of growth at 20 ppm (in data set [3]; in the data set on Sclerotinia sclerotiorum) was not below 80% each time.
`Cc1cccc2c1C(F)(F)C(C)(C)N=C2n1cnc2c(C)c(C)ccc21` [E-22]: the inhibition of growth at 200 ppm (in data set [1]; in [2]; in the data set with Fusarium culmorum; in data set [4]; in data set [5]) was not below 80% in each case. Besides, the inhibition of growth at 20 ppm (in data set [3]; in the data set with Sclerotinia sclerotiorum; in the data set on Pyrenophora teres [6]) was not below 80% throughout.
In the case of `Cc1cccc2c1C(F)(F)C(C)(C)N=C2n1cnc2c(C)cccc21` [E-21], the inhibition of growth at 200 ppm (in [1]; in data set [2]; with Fusarium culmorum; in data set [4]; in [5]; in the data set on Gaeumannomyces graminis) was not below 80% in each case. Besides, the inhibition of growth at 20 ppm (in data set [3]; in the data set with Sclerotinia sclerotiorum; in the data set on Pyrenophora teres [6]) was not below 80% throughout.
For `CC1(C)N=C(n2cnc3c(F)c(F)ccc32)c2cccc(F)c2C1(C)C` [E-50], the melting point lay within 112 to 114 °C. Further, the inhibition of growth at 200 ppm in [1] is not below 80%. Further, in [2], the inhibition of growth at 200 ppm was not below 80%. Further, the inhibition of growth at 20 ppm in data set [3] is not below 80%. Further, the inhibition of growth at 200 ppm in the data set with Fusarium culmorum is not below 80%. Besides, the inhibition of growth at 200 ppm in [4] is not below 80%. Also, the inhibition of growth at 200 ppm in data set [5] is not below 80%.
For the compound `Cc1ccc2c(ncn2C2=NC(C)(C)C(C)(C)c3c(F)cccc32)c1F` [E-60], the inhibition of growth at 200 ppm (in [1]; in data set [2]; with Fusarium culmorum; in [4]; in [5]; with Gaeumannomyces graminis) was not below 80% in each case. Besides, the inhibition of growth at 20 ppm in data set [3] is not below 80%.
Consider `Cc1c(F)ccc2c1ncn2C1=NC(C)(C)C(F)(F)c2ccccc21` [E-32], for which the melting point was in the range of 118 to 121 °C. In addition, the inhibition of growth at 200 ppm in [1] was not below 80%. For the same compound, the inhibition of growth at 200 ppm in data set [2] was not below 80%. Besides, in data set [3], the inhibition of growth at 20 ppm is not below 80%. Also, in the data set on Sclerotinia sclerotiorum, the inhibition of growth at 20 ppm was not below 80%. Further, the inhibition of growth at 200 ppm in the data set with Fusarium culmorum is not below 80%. For the same compound, in data set [4], the inhibition of growth at 200 ppm is not below 80%. The inhibition of growth at 200 ppm in [5] was not below 80%. Also, the inhibition of growth at 200 ppm in the data set with Gaeumannomyces graminis is not below 80%.
In the case of `Cc1cccc2c1ncn2C1=NC(C)(C)C(=O)c2cc(Cl)ccc21` [E-34], the melting point lay within 129 to 133 °C. Also, the inhibition of growth at 200 ppm in data set [1] was not below 80%. Moreover, the inhibition of growth at 200 ppm in data set [2] is not below 80%. In data set [3], the inhibition of growth at 20 ppm was not below 80%. Moreover, in the data set with Fusarium culmorum, the inhibition of growth at 200 ppm was not below 80%. In data set [4], the inhibition of growth at 200 ppm is not below 80%.
On to `Cc1ccc2c(ncn2C2=NC(C)(C)Cc3cc(F)ccc32)c1C` [E-57], for which the melting point fell in the range of 143 to 145 °C. In [1], the inhibition of growth at 200 ppm is not below 80%. Also, in data set [2], the inhibition of growth at 200 ppm was not below 80%. For the same compound, the inhibition of growth at 20 ppm in data set [3] was not below 80%. In addition, the inhibition of growth at 20 ppm in the data set on Sclerotinia sclerotiorum is not below 80%. Moreover, in the data set on Fusarium culmorum, the inhibition of growth at 200 ppm is not below 80%. The inhibition of growth at 200 ppm in [4] is not below 80%. Further, the inhibition of growth at 200 ppm in data set [5] was not below 80%.
With `Cc1c(Cl)ccc2c1ncn2C1=NC(C)(C)C(F)(F)c2ccccc21` [E-33], the inhibition of growth at 200 ppm (in data set [1]; in data set [2]; with Fusarium culmorum; in [4]; in data set [5]; in the data set with Gaeumannomyces graminis) was not below 80% throughout. The inhibition of growth at 20 ppm (in data set [3]; in the data set with Sclerotinia sclerotiorum) was not below 80% throughout.
Regarding `Cc1cccc2c1ncn2C1=NC(C)(C)C(C)(C)c2c(F)cccc21` [E-1], the melting point is 45 to 46 °C. For the same compound, in data set [1], the inhibition of growth at 200 ppm is not below 80%. Moreover, in data set [2], the inhibition of growth at 200 ppm is not below 80%. Also, the inhibition of growth at 20 ppm in [3] is not below 80%. Further, in the data set with Sclerotinia sclerotiorum, the inhibition of growth at 20 ppm was not below 80%. Further, the inhibition of growth at 200 ppm with Fusarium culmorum was not below 80%. Moreover, the inhibition of growth at 200 ppm in [4] is not below 80%. Moreover, the inhibition of growth at 200 ppm in data set [5] is not below 80%. Further, the inhibition of growth at 20 ppm in the data set with Pyrenophora teres [6] was not below 80%. For the same compound, the inhibition of growth at 200 ppm in the data set on Gaeumannomyces graminis is not below 80%.
Regarding `Cc1cccc2c1ncn2C1=NC(C)(C)C(C)(C)c2ccccc21` [E-16], the “control of Pyrenophora teres” value with Pyrenophora teres [7] was “at least 80%”. For the same compound, the inhibition of growth at 200 ppm (in [1]; in [2]; in the data set with Fusarium culmorum; in [5]; with Gaeumannomyces graminis) was not below 80% in each case. Moreover, the inhibition of growth at 20 ppm (in [3]; in the data set on Sclerotinia sclerotiorum; in the data set with Pyrenophora teres [6]) was not below 80% in each case.
